Tests used:
[1] = target: MAP/microtubule affinity-regulating kinase 3 (Homo sapiens) (UniProt P27448); experiment: Selectivity interaction (Kinase panel (KiNativ target engagement assay in Jurkat cells)) EUB0001635a MARK3; type: cell-based; conditions: at 1 µM
[2] = target: T1, Megakaryocyte-associated tyrosine-protein kinase (Homo sapiens) (UniProt P42679); conditions: at 10 µM
T1 sequence (whole entry): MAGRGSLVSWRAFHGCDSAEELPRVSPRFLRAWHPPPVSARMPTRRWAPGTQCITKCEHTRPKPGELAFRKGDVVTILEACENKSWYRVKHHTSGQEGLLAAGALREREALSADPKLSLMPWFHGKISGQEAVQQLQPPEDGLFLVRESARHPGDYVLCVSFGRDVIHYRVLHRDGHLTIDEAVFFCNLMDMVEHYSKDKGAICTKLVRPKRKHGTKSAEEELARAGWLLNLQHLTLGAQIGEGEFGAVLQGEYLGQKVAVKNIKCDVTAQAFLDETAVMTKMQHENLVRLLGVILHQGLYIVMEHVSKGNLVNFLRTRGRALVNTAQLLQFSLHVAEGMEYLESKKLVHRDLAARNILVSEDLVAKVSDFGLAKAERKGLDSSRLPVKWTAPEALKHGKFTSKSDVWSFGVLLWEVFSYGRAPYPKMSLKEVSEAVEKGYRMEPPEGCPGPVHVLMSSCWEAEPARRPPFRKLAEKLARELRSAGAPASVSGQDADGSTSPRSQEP

[3] = target: T2, Mitogen-activated protein kinase kinase kinase 5 (Homo sapiens) (UniProt Q99683); experiment: Selectivity interaction (ActivX KiNativ screen (kinase selectivity in THP-1 cell lysates)) EUB0000639a MAP3K5; type: subcellular; conditions: lysate, at 0.01 µM
T2 sequence (whole entry): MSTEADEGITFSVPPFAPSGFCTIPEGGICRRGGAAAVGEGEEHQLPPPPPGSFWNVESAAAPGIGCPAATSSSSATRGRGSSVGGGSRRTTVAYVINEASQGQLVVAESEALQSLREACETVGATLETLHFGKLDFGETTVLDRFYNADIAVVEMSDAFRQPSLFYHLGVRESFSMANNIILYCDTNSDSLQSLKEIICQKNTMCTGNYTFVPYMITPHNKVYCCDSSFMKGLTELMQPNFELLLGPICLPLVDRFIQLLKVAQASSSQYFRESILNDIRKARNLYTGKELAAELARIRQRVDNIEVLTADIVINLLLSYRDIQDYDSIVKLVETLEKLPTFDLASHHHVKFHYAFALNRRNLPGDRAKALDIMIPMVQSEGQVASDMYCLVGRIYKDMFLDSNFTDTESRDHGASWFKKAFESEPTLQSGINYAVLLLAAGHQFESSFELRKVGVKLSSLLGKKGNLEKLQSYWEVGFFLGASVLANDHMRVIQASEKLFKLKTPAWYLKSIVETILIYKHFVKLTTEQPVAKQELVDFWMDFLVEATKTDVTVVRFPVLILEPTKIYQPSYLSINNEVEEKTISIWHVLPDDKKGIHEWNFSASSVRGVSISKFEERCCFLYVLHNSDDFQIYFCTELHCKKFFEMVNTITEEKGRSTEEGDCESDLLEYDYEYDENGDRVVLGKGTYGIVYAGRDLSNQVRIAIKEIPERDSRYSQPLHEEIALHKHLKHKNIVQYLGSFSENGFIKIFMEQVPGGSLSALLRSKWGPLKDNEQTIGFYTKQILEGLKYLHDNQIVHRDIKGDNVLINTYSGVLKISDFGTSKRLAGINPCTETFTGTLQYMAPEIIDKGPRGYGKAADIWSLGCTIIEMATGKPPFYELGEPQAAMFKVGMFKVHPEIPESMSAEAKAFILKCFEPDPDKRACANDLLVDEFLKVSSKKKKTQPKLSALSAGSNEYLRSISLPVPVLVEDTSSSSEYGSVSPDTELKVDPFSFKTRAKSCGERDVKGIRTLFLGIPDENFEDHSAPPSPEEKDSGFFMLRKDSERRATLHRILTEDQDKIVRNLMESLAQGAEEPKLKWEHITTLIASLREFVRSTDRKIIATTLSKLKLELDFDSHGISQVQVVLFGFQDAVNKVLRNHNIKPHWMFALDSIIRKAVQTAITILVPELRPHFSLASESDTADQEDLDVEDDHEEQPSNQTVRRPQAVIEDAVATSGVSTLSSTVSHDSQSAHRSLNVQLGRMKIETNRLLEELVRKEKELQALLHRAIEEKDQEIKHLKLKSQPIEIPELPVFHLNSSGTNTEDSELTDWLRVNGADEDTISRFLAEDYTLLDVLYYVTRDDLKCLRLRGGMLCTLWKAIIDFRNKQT

[4] = target: T3, Casein kinase I isoform alpha-like (Homo sapiens) (UniProt Q8N752); experiment: Selectivity interaction (KinomeScan (DiscoverX)) EUB0001049a CSNK1A1L; conditions: at 1 µM
T3 sequence (whole entry): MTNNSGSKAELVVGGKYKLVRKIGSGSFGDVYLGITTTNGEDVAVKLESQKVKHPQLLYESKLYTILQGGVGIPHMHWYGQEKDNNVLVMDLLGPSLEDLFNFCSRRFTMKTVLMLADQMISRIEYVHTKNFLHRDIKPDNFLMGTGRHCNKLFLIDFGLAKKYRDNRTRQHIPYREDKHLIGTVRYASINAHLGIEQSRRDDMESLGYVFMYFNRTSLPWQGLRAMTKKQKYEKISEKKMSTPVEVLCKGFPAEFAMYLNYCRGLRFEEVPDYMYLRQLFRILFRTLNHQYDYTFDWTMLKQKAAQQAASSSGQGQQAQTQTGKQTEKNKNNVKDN

[5] = target: Mitogen-activated protein kinase kinase kinase 11 (Homo sapiens) (UniProt Q16584); experiment: Selectivity interaction (KinomeScan (DiscoverX)) EUB0000695a MAP3K11; conditions: at 100 nM
Mitogen-activated protein kinase kinase kinase 11 (Homo sapiens), sequence (Q16584 whole entry, looked up): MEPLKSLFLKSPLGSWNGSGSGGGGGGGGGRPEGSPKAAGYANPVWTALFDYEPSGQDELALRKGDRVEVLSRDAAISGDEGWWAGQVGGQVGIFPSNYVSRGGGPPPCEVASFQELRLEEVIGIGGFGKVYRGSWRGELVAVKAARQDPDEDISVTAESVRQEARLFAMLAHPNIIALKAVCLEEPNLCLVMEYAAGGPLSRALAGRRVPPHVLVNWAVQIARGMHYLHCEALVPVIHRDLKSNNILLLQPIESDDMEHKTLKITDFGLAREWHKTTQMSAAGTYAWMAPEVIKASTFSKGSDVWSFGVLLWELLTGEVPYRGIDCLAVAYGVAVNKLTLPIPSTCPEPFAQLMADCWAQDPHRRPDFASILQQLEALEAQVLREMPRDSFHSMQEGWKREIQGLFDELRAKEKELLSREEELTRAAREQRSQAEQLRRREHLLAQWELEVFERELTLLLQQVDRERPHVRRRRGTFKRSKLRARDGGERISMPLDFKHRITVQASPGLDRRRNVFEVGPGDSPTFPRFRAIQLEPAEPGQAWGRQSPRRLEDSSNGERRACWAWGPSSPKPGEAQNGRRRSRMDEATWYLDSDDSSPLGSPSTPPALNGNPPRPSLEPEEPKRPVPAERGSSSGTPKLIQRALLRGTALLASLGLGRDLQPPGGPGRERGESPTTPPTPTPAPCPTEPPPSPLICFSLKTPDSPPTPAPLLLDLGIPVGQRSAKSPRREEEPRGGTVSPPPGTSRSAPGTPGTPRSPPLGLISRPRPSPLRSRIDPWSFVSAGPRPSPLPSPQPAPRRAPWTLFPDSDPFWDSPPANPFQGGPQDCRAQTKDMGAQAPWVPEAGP

MAP/microtubule affinity-regulating kinase 3 (Homo sapiens), sequence (P27448 whole entry, looked up): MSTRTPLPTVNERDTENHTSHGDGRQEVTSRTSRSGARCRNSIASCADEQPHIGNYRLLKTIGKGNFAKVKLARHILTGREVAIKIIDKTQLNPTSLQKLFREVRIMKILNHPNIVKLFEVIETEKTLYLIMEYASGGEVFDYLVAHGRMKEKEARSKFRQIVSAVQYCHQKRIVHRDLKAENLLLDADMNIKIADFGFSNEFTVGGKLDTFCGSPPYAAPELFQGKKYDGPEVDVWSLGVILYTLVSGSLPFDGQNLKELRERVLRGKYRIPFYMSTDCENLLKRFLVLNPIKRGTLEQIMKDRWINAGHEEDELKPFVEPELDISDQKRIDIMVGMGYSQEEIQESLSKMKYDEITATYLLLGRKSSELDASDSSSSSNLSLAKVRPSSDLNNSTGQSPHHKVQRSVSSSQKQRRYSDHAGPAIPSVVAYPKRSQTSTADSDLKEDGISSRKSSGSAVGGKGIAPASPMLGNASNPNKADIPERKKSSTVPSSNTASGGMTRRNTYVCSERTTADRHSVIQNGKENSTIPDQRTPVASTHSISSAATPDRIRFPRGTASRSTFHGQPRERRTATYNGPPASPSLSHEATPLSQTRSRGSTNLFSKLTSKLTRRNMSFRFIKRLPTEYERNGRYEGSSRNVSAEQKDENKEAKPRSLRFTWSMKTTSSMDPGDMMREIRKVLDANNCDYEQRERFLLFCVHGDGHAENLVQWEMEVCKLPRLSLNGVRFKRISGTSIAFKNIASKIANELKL

`C=CC(=O)Nc1ccc(C(=O)Nc2[nH]nc3c2CN(C(=O)N[C@H](CN(C)C)c2ccccc2)C3(C)C)cc1` gave a % of engagement ([1]; Selectivity number of off-targets 0.0, Selectivity number of targets 233.0, Source Knowledge https://www.sciencedirect.com/science/article/pii/S2451945619300674?via%3Dihub) of 16.4% and a % of engagement [1] of 19.1%.

Work on `Cc1cc([C@@H](C)Nc2ccccc2C(=O)O)c2nc(N3CCOCC3)cc(=O)n2c1` [AZD-6482] yielded a % of control [2] of 96%.

With `CC[C@@H]1[C@H](F)C(=O)N[C@@H]1COc1nccc2cc(C(N)=O)c(OC)cc12` [ZIMLOVISERTIB] the % of inhibition [3] was -5.8%.

In the case of `COc1cc(Nc2nc(C)cc(-c3cnn4nc(OC)ccc34)n2)cc(C(F)(F)F)c1`, the % of control [4] was 100%.

In the case of `Cc1cc(F)c(C(=O)Nc2cccc(-c3nncn3C(C)C)n2)cc1-n1cnc(C2CC2)c1`, the % of control [5] was 79%.
